We go through 4 compounds from patent publication US20240254119A1 (THIRD HARMONIC BIO, INC., priority 2022, published 2024).

A short description of series [1]: Kinetic solubility assay. It counts as physicochemical. The conditions noted are these: kinetic solubility, 50 mM PB (pH 7.4), shaken 24 hours at RT. The protocol: 10 μL of 10 mM in DMSO of test article and control compounds was added into lower chambers of whatman miniuniprep vials, respectively. 490 μL of 50 mM PB (pH 7.4) was then added into lower chambers of the whatman miniuniprep vials, respectively. […] Miniuniprep vials were shaken for 24 hours at RT at the speed of 800 rpm, centrifuged 20 minutes (eg. 4000 rpm) and the filtrates were analyzed by UPLC-UV/HPLC-UV system to calculate the concentration with standard curve.
Filter Membrane: Miniuniprep (PTFE Filter Media with Polypropylene Housing) Cat. No. UN203NPUORG, GE Halthcare Whatman.

For series [2], the target named is T1, wtKIT (Homo sapiens, UniProt P10721).
T1 construct: 1888289AM in the reaction mixtures
The series is described as follows: HTRF biochemical assay, wtKIT (phosphorylation of a peptide substrate). The conditions noted are these: Table 4. The procedure, abridged: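 wtKIT (5.0 nM) phosphorylating 1 µM FAM-labelled peptide with 400 µM ATP and 10 mM MnCl2 in 100 mM HEPES pH 7.5, 1% DMSO, 3 h at 25 °C. EDTA quench; phosphopeptide detected with anti-phosphotyrosine antibody by HTRF. Enzyme titrated for 10-20% substrate conversion.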
(TR-FRET usually uses a lanthanide donor and a delayed reading to cut background.)

The target in series [3] is T1, wtKIT. The experiment in a line: Caliper biochemical assay, wtKIT. Conditions: Table 6, read-out: KIT Biochemical IC50 avg. The procedure:
Enzyme, substrate, and cofactors (ATP and Mn^2+) are combined in a well of a microtiter plate and incubated for 3 hours at 25° C. At the end of the incubation, the reaction is quenched by the addition of an EDTA-containing buffer. Substrate and product are separated electrophoretically using the microfluidic-based LabChip 3000 Drug Discovery System from Caliper Life Sciences* and quantitated by fluorescence intensity.
The substrate used in the CSF-1R and PDGFRα assay is FAM-[…]-CONH2 (FAM is carboxyfluorescein). Peptide should be >95% purity. The substrate for the KIT assay is FAM-[…]-NH2.
• 1. To a well of a 384-well plate add 5 μL of 2× enzyme buffer (or control) • 2. Add 100 nL of 100× compound. • 3. Add 5 μL of 2× substrate buffer. • 4. Incubate plate at 25° C. for 3 hours. • 5. Add 10 uL of […]. • 6. Read plate LabChip 3000 Drug Discovery System
• 3 hours at 25° C. where 100% Inhibitor: No enzyme.
• 100 mM HEPES, pH 7.5 0.1% BSA • 0.01% Triton X-100 • 1 mM DTT • 10 mM MnCl2 • 10 μM Sodium Orthovanadate • 10 μM Beta-Glycerophosphate • 400 μM ATP • 1% DMSO (from compound) • 1 μM FAM-[…]-CONH2 5.0 nM wtKIT Enzyme (1888289AM)* • *Specific activity may vary from lot to lot. Enzyme concentration may need to be adjusted to yield 10-20% conversion of substrate to product.

A value given as a limit tells only on which side of the number the result lay.

T1 sequence (P10721 26-976): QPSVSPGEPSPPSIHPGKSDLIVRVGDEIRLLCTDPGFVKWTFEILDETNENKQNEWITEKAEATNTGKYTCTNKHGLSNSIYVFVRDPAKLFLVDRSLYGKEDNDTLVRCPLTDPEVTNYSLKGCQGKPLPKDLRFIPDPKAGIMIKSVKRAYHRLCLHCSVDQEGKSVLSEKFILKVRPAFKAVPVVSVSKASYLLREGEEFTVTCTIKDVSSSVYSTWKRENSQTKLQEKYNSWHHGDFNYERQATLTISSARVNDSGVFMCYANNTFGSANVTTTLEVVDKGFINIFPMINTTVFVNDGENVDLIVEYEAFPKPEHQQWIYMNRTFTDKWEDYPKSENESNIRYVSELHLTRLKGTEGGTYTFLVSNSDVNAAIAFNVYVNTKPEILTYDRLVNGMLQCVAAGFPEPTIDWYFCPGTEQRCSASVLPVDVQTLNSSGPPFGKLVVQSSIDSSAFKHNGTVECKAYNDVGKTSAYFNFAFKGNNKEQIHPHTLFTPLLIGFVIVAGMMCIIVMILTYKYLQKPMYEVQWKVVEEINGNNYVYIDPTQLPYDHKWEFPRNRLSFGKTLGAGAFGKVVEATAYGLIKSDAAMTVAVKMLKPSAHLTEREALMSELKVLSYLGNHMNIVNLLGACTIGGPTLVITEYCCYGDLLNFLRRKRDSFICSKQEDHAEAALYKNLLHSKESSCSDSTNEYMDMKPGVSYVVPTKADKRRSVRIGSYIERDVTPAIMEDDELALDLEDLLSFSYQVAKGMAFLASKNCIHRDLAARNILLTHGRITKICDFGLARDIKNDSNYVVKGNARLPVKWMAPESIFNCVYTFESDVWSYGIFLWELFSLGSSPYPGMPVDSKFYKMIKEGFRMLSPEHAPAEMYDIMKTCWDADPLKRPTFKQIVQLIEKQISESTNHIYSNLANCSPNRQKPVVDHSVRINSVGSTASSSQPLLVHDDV

For the compound `CCNc1ccn2c(C(=O)Nc3cc(-c4noc(C)n4)ccc3C)cnc2c1` [Compound I-229], the “Solubility (μM)” value in series [1] is reported as “**** (a solubility less than or equal to 2 μM)”. Also, the IC50 in series [2] and in series [3] was at most 50 nM throughout.
As for `Cc1ccc(-c2noc([C@H]3C[C@@H]3F)n2)cc1NC(=O)c1cnc2cc(NS(=O)(=O)c3c(C)noc3C)ccn12` [Compound I-226], the “Solubility (μM)” value in series [1] is recorded as “* (a solubility greater than 50 μM)”. Moreover, the IC50 in series [2] and in series [3] was 50 to 500 nM in each case.
In the case of `COC(=O)N1CC(c2nc(-c3ccc(C)c(NC(=O)c4cnc5ccc(OC[C@@H](C)O)cn45)c3)no2)C1` [Compound I-227], the “Solubility (μM)” value in series [1] was “** (a solubility greater than 10 μM and less than or equal to 50 μM)”. The IC50 in series [2] was 50 to 500 nM; in series [3], at most 50 nM.
On to `COC(=O)N1CC(c2nc(-c3ccc(C)c(NC(=O)c4cnc5ccc(OCC(C)(C)O)cn45)c3)no2)C1` [Compound I-239], for which the “Solubility (μM)” value in series [1] is “** (a solubility greater than 10 μM and less than or equal to 50 μM)”. Moreover, the IC50 in series [2] and in series [3] was 50 to 500 nM throughout.

As a reminder, the IC50 is the concentration at which inhibition is half-maximal.
